Source: publication PMC6658998, “Pharmacological characterization of the seven human NOX isoforms and their inhibitors” (Redox Biology, 2019)
Where two headings read alike, the source gives them in different places.

Columns and labels:
NOX5 [1] = biological target: T1, NOX5 (Homo sapiens, UniProt Q96PH1); experiment: WST-1 O2•- detection in NOX5-expressing HEK293 cells; format: cell-based; conditions: WST-1, PMA 0.1 μM and ionomycin 1 μM; read-out: IC50 NOX5 (HEK) WST-1
T1 construct: expressed in transfected cells
T1 sequence (Q96PH1 19-737 isoform Q96PH1-3 limits assumed): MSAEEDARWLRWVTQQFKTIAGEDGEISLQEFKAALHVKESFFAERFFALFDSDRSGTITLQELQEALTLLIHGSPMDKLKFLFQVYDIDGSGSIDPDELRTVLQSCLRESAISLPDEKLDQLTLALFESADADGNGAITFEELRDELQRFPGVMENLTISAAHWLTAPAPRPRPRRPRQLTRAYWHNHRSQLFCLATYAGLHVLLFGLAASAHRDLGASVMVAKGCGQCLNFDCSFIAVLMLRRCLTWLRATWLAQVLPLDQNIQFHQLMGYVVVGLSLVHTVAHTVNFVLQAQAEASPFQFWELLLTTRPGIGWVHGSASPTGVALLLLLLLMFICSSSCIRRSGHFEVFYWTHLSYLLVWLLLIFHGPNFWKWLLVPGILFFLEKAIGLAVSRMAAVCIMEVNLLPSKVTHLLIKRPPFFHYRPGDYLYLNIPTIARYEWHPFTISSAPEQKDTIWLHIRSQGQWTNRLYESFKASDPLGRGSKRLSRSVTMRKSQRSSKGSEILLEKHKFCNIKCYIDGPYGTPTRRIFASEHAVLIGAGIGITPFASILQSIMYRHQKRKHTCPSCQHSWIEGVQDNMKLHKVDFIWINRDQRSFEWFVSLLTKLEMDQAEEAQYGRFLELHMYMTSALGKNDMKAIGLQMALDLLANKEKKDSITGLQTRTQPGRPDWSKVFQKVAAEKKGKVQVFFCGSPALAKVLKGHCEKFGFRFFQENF

in vitro = conditions: human
[2] = Cell-free Amplex Red/HRP assay with 10 μM H2O2 (H2O2 scavenging / HRP inhibition); conditions: 10 μM H2O2, Amplex Red/HRP, read-out: Scavenging effect IC50 AR H2O2
DUOX1 = biological target: T2, DUOX1 (Homo sapiens, UniProt Q9NRD9); experiment: Amplex Red/HRP H2O2 detection in DUOX1-expressing HEK293 cells; format: cell-based
T2 construct: expressed in transfected cells; host or cells: HEK293, selected with G418 and zeocin

human NOX4 = biological target: T3, human NOX4 (Homo sapiens, UniProt Q9NPH5); experiment: WST-1 O2•- detection in tetracycline-induced NOX4 HEK293 T-REx cells; format: cell-based; conditions: WST-1, tetracycline 1 μg/mL 24 h
T3 sequence (Q9NPH5 1-578): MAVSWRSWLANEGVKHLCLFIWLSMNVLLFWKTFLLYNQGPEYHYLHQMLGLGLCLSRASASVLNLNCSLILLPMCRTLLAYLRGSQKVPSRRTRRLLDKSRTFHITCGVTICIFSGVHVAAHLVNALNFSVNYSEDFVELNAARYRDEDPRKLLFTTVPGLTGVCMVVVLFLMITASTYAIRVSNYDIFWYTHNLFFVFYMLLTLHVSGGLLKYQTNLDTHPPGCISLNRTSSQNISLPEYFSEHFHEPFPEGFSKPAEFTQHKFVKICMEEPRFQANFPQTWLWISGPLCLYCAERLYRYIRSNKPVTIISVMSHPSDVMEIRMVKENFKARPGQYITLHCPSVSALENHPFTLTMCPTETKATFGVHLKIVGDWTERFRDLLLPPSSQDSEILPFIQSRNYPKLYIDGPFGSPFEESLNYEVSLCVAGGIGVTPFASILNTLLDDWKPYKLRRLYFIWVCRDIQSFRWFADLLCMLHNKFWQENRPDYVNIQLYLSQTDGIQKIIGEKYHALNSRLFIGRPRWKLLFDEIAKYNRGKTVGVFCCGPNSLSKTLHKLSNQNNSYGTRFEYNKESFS
T3 sequence (P13498 1-195 partner): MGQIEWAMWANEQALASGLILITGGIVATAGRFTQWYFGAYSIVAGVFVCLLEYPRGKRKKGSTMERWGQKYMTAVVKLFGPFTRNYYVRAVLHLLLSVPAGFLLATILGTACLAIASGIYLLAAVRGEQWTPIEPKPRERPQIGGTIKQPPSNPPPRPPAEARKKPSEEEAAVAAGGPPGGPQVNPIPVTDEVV

NOX5 [3] = biological target: T1, NOX5; experiment: NOX5 activity in purified membranes of HEK293 cells expressing NOX5 (WST-1, CBA); format: biochemical; conditions: for Inhibitory activity in NOX5 membrane assay: WST-1 / CBA, concentration not given
Protocol: PLB-985 (40 dishes 150 cm^2) were grown in suspension and differentiated by addition of 1.25% DMSO for 72 h. HEK293 cells expressing NOX5 (40 dishes 150 cm^2) were amplified until confluence and detached using trypsin-EDTA for 5 min followed by addition of 2 vol of pre-warmed complete growth media to inactivate trypsin. Collected cells were centrifuged at 4000 ×g for 10 min. Cells were washed with PBS and centrifuged at 1500 ×g for 10 min. The supernatant was discarded and the pellet was placed at −80 °C for at least 30 min. […] Samples were sonicated two times for 25 s (level 7, Branson Sonifier 250). Cell debris were removed by centrifugation at 800 ×g for 10 min at 4 °C. The supernatant was laid on a sucrose gradient consisting of a bottom layer of 1 mL 40% sucrose and an upper layer of 1 mL 17% sucrose. Ultracentrifugation was performed at 150,000 ×g in SW60 rotor for 30 min at 4 °C. Following separation, the upper cytosolic fraction was discarded and the cloudy membrane fraction was collected. Protein concentration was determined with Bradford reagent using BSA as a standard. Small aliquots were kept at −80 °C.
NOX2 containing membranes were used at 10 μg/mL of proteins in a reaction mixture containing 90 nM recombinant RacQ61L, 45 nM recombinant p67Np47 N chimeric protein (consisting of a fusion of the N-termini of human p67phox [residues 1–210] and p47phox [residues 1–286]), 90 μM SDS, 1 μM FAD-Na2 and 1 mM WST-1 or 800 μM CBA in PBS. The reaction mixture was dispensed in 96-well plates (transparent for WST-1 absorbance, black for CBA fluorescence) at 80 μL/well and the plate was incubated for 5 min at 37 °C. The reaction was initiated by addition of 20 μL/well NADPH at final concentration 100 μM. NOX5 containing membranes were used at 20 μg/mL of proteins in a reaction mixture containing 50 mM HEPES pH 7.4, 1 mM NTA, 1 mM EDTA, 1 mM BAPTA, 1 mM MgCl2, 5.5 μM phosphatidic acid, 1 μM FAD, 700 μM CaCl2 and 1 mM WST-1 or 800 μM CBA in Milli-Q H2O. The reaction mixture was dispensed in 96-well plates (transparent for absorbance, black for fluorescence) at 80 μL/well and 20 μL/well of NADPH at final concentration of 200 μM were added to initiate the reaction.
Reported NOX inhibitors were added in 96 well plates at a single concentration as indicated to which mix containing membrane fractions and all components of the NOX2 or NOX5 membrane assays were added except NADPH. After 2–3 min incubation, 200 μM NADPH was added to start the reaction.

[4] = Amplex red/HRP, PMA 0.1 μM and ionomycin 1 μM, read-out: IC50 DUOX1 (HEK) AR

T2 sequence (Q9NRD9 22-1551): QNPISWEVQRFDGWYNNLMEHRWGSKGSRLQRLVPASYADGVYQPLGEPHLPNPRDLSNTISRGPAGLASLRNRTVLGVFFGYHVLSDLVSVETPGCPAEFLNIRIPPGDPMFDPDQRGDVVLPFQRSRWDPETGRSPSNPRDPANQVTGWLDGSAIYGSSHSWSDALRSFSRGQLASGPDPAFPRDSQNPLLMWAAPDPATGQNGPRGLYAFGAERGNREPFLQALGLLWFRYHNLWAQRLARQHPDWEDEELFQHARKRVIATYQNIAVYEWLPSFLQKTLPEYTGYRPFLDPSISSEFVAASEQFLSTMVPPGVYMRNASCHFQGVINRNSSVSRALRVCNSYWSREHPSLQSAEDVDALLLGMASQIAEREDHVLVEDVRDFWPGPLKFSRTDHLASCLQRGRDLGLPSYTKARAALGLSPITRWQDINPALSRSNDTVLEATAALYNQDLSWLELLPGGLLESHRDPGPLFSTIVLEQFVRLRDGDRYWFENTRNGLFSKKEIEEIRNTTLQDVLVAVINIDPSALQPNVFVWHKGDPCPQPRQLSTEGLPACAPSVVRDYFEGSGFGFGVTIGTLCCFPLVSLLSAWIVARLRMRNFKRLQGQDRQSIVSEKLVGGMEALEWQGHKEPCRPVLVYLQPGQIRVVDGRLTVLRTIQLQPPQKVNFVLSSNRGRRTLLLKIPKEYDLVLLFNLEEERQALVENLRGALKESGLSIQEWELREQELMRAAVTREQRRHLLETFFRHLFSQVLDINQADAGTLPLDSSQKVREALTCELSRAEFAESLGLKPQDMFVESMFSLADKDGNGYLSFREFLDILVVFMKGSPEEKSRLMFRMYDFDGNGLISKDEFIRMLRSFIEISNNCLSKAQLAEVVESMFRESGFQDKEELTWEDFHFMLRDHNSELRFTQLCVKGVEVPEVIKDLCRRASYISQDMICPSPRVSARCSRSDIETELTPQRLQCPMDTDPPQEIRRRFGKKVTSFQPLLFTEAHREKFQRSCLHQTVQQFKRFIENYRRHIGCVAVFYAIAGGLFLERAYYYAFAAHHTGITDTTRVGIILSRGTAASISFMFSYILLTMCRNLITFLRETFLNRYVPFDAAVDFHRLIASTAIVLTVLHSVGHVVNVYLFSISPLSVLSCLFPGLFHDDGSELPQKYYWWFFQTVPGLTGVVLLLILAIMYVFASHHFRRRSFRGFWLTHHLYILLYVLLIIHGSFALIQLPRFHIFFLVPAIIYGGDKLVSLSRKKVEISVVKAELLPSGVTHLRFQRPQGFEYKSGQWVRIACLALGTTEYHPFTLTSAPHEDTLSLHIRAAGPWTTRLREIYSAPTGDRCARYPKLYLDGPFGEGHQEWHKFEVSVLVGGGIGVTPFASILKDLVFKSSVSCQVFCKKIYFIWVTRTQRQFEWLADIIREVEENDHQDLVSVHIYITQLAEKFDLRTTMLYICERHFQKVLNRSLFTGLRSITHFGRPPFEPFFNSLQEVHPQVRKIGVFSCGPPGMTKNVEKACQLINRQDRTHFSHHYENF
T2 sequence (Q1HG43 whole entry partner): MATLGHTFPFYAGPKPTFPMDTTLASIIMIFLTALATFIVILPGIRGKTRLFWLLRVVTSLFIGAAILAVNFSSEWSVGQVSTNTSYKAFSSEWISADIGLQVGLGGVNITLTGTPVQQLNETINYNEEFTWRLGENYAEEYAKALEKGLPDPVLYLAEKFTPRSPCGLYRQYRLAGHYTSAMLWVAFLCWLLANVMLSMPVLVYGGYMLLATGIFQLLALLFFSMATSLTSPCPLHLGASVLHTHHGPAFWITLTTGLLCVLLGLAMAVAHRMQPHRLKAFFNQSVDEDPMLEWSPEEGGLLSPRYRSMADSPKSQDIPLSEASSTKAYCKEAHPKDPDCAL

Row | IC50 (NOX5 [1]) | IC50 [2] | IC50 (DUOX1; [4]) | IC50 (human NOX4) | Structure (SMILES) | CC50 at 1 h (in vitro) | Inhibitory activity in NOX5 membrane assay (NOX5 [3]) | IC50 (DUOX1) | CC50 at 1 h (in vitro; PLB-985 cells) | Inhibition of NOX5-dependent signal in membranes (NOX5 [3]; compound 50 μM) | Inhibitory activity in NOX5 membrane assay (NOX5 [3]; listed as VAS280)
1 | > 50 µM | > 50 µM | > 50 µM | > 50 µM | COc1cc(C(C)=O)ccc1O [Apocynin, apocynin] | > 50 µM | – | – | – | – | –
2 | > 50 µM | 11.5 µM | 13.6 µM | > 50 µM | COc1cc(C(C)=O)cc(-c2cc(C(C)=O)cc(OC)c2O)c1O [Diapocynin, diapocynin] | – | – | – | > 50 µM | – | –
3 | > 50 µM | 1.9 µM | 5.9 µM | > 50 µM | Cc1c2c(=O)n(-c3ccccc3Cl)[nH]c2cc(=O)n1Cc1ccccn1 [GKT136901] | – | – | – | > 50 µM | – | –
4 | – | – | – | – | c1ccc(Cn2nnc3c(Sc4nc5ccccc5o4)ncnc32)cc1 [VAS2870, 3-benzyl-7-(2-benzoxazolyl)thio-1,2,3-triazolo[4,5-d]pyrimidine] | – | no inhibitory activity | – | – | – | some level of inhibition

Row | Structure (SMILES) | IC50 (NOX5 [1]) | IC50 [2] | IC50 (DUOX1; [4]) | IC50 (human NOX4) | CC50 at 1 h (in vitro) | Inhibitory activity in NOX5 membrane assay (NOX5 [3]) | IC50 (DUOX1) | CC50 at 1 h (in vitro; PLB-985 cells) | Inhibition of NOX5-dependent signal in membranes (NOX5 [3]; compound 50 μM) | Inhibitory activity in NOX5 membrane assay (NOX5 [3]; listed as VAS280)
5 | c1ccc2c(c1)[I+]c1ccccc1-2 [DPI, diphenylene iodonium chloride] | – | > 50 µM | – | – | > 50 µM | potently inhibited | 1.4 µM | – | – | –
6 | O=c1c2ccccc2[se]n1-c1ccccc1 [Ebselen, ebselen] | – | 3.3 µM | 4.2 µM | – | – | – | – | 3.1 µM | inhibited | –
